# Test results published in article PMC10520499, “Next step in the development of mesoprogestins: the preclinical profile of EC313” (Frontiers in Endocrinology, 2023).
# Several values for one entry are separate records, joined by “and”; a condition that tells them apart may be missing. Identical values can stand only once.
# Tests used:
# [1] = molecular target: T1, human estrogen receptor α (Homo sapiens, UniProt P03372); experiment: Competitive binding, human estrogen receptor α; conditions: ERα, full length
# T1 construct: coding for the full length human estrogen receptors α and β, respectively, were obtained from GenScript; made in house; host or cells: HI (Hi5) insect cells, baculovirus; cellular lysate
# Method: (§1) The study aimed to characterize the competitive binding profile of EC313 to relevant human nuclear receptors. For the assays, commercially available ‘ligand binding domain’ proteins were purchased (Thermo Fisher Scientific). In addition, the full-length receptor proteins were expressed in transfected HI insect cells using the `Bac-to-bac Baculovirus expression system´ (Thermo Fisher Scientific). Cellular lysates served as receptor preparation. Receptor protein preparations were incubated with tritiated reference ligands and EC313 or reference steroids at concentrations between 0.1 and 1000 nM for 2h at 4°C to reach equilibrium. Subsequently, unbound steroids were adsorbed to dextran-coated charcoal (Sigma Aldrich), separated by filtration, and the remaining radioactivity was quantified in a ß-counter (Perkin Elmer). Displacement curves were fitted using the GraphPad Prism 7 free version to obtain EC50 values. Relative binding affinity (RBA [%], (C50ref/C50test)*100) and the competition coefficient (C50test/C50ref) were used to describe the relative binding potency of EC313 compared to the reference ligands.
# (§2) There are two subtypes of estrogen receptors (ER), ERα and ERβ, coded in different genes. Plasmids pFastBac1-ERa and pFastBac1-ERb, coding for the full length human estrogen receptors α and β, respectively, were obtained from GenScript. […]
# human PRA = human PRA (Homo sapiens, UniProt P06401); experiment: PR-A transactivation (CHO, MMTV-LUC); assay type: cell-based
# Method: Due to the existence of two isoforms of the PR receptor (PRA and PRB) and the fact that both of them control expression of a largely different set of genes, separate assays for each of them were carried out.
# In order to develop the transfection assay, plasmids were generated and isolated. Plasmids included vectors with the coding sequences for the receptor as well as the reporter gene, respectively. The vector pcDNA3.1 coding sequence for the full length of human PRA and PRB (cDNA ORF clone in pcDNA3.1+/C-(K)-DYK) was used as an expression vector for PR isoform A and B, respectively. Vector pGL4.36 coding for the progesterone responsive element MMTV and firefly luciferase reporter vector [luc2P/Hygro] were used as reporter systems (pGL4.36-MMTV/LUC).
# A sufficient transactivation signal was achieved using stable transfection for the human PRA and PRB receptors and transient transfection for the MMTV-luciferase reporter gene. Therefore, the first stable transfection with the receptor of interest was performed. Thus, 0.5x10^6 CHO cells per well were plated into 6-well plates in transfection medium w/o antibiotics (RPMI phenol-free, 10% FBS,2mM L-glutamine). When the cells reached 80% confluency, transfection with receptor using FuGENE 6 in Opti-MEM medium was accomplished according to the manufacturer’s instruction. After 48h of transfection, stably transfected cells were cultured in a growth medium containing an antibiotic (G418 500 µg/mL). Only cells with the resistance gene (resistance to G418), which had been transfected together with the DNA for PRA and PRB were able to grow in this medium. Consequently, growing cell clones were selected for further steps as stable transfectants. The CHO cells stably transfected with the expression of PRA or PRB were transiently transfected with promoter MMTV/LUC vectors. […]
# After 24h incubation of cells with tested compounds, luciferase activity was measured using a VICTOR™ X Multilabel Plate Reader -Perkin Elmer.
# [2] = tested on: human uterine fibroid xenografts; experiment: Human uterine fibroid xenografts in NOD-SCID mice; assay type: in vivo; conditions: Part B; 0.01 mg/kg/day s.c.
# Method: Fibroids/Leiomyoma are one of the clinical target indications for the development of EC313. But, there are no very reliable pre-clinical models known at present. From all experimental approaches, the transplantation of human fibroid tissue into immunodeficient mice s.c. resembles the clinical situation most closely. UPA served as a reference compound. There were two study parts: A and B. Part A is already published ([2]). Human uterine fibroid samples (2x2x2 mm; weighting roughly 8 mg) were transplanted s.c. into NOD-SCID mice 3 weeks after ovariectomy. Simultaneously, the animals were supplemented s.c. with E2-releasing pellets (0.05 mg E2/90 days release). The treatment period over 60 days (5 treatment days a week) started immediately after transplantation. There was a sham control, an E2 control, two EC313-group, one Ulipristal (UA) group, and a combination of UPA+EC313 (Part A). […] The animals were sacrificed after a treatment period of 60 days. Graft weights were the primary endpoint (parts A and B); histological findings including immunostainings of the grafts were used as secondary endpoints (part A).
# [3] = tested on: orchiectomized male Wistar rats; experiment: Hershberger assay; assay type: in vivo, rat; conditions: 3, 10 and 30 mg/animal/day s.c., 7 days; ± Testosterone propionate 1 mg/animal/day
# Method: To test EC313 for potential androgenic or anti-androgenic potential, the Hershberger assay was used. Orchiectomized male Wistar rats were treated for 7 consecutive days with daily subcutaneous injections of EC313 (3, 10, and 30 mg/animal/day).
# The potential anti-androgenic activity was assessed by co-administration of Testosterone propionate (TP; 1 mg/animal/day s.c.), which also served as the positive control, and EC313. The vehicle served as the negative control. One day after the last treatment, animals were sacrificed and the prostate gland and the seminal vesicles were removed and weighed. The relative weight of these organs, expressed as mg/100 g body weight, served as the endpoint.
# [4] = tested on: human endometriotic tissue grafts; experiment: Human endometriotic xenografts in immunodeficient mice; assay type: in vivo; conditions: s.c. once daily 14 days; EC313 0,01, 0.1, 1 mg/animal/day; Ulipristal acetate 1 mg/animal/day; vs vehicle control
# From the text: Endometriosis is one of the expected clinical target indications for the development of EC313. But, there are no reliable pre-clinical models known at present. From all experimental approaches, the transplantation of human endometriotic tissue into immunodeficient mice resembles the clinical situation to some extent closely. Treatment of EC313 was compared with UPA as a reference compound. Two to four small pieces of human endometriotic tissue were placed into a s.c. pouch in the pelvic area of each of the ovariectomized mice. At the same time, an E2-releasing pellet (0.36 mg/pellet/60 days) was implanted s.c. in the neck of the mice. Furthermore, 2 weeks after implantation, the mice were treated with once-daily s.c. injections of vehicle, EC313 (0,01, 0.1, and 1 mg/animal/day), or Ulipristal acetate (1 mg/animal/day) for 14 days. The mice were sacrificed 24 hours after the last injection and all identified endometriotic grafts were resected, weighed, and subjected to visual examination.
# [5] = molecular target: T2, hGR-LBD purified recombinant protein (Homo sapiens, UniProt P04150); experiment: Competitive binding, GR ligand binding domain
# T2 construct: purchased Thermo Fisher Scientific
# T2 sequence (P04150 524-758 limits assumed): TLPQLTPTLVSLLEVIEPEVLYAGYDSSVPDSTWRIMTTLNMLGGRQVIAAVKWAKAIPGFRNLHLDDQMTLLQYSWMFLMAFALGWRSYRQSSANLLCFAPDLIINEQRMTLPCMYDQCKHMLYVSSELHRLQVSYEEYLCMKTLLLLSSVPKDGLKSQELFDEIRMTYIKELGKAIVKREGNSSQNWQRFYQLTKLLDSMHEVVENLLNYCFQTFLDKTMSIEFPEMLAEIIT
# Method: as §1
# pregnant guinea pigs = experiment: Abortive activity in pregnant guinea pigs; assay type: in vivo, guinea pig; conditions: 30 mg/animal/day s.c., pregnancy days 43 and 44
# Method: In female animals, the second day of vaginal opening in the mating cycle was defined as day 1 of pregnancy (pregnancy length approx. 62 days). They were treated on days 43 and 44 by subcutaneous (s.c.) injection of the proprietary compounds EC312, EC313, EC323, and EC328 as well as UPA. All tested compounds were synthesized in Evestra Inc. The dose levels administered were 3, 10, and 30 mg/animal/day. The external genital organs were inspected for the presence of vaginal bleeding and fetal membranes (twice daily). The presence of expelled fetuses and placentae in the cages was also recorded at each inspection.
# The animals were sacrificed on day 50 using CO2. Both uterine horns were dissected and their contents were inspected. Fresh corpora lutea (CL) were evidence of a recent ovulation.
# [6] = molecular target: T3, human estrogen receptor β (Homo sapiens, UniProt Q92731); experiment: Competitive binding, human estrogen receptor β; conditions: ERβ, full length
# T3 construct: coding for the full length human estrogen receptors α and β, respectively, were obtained from GenScript; made in house; host or cells: HI (Hi5) insect cells, baculovirus; cellular lysate
# Method: as §1, §2
# [7] = tested on: human progesterone receptor (full length, PRA); experiment: Competitive binding, full length human progesterone receptor; conditions: compared to progesterone
# Method: as §1
# [8] = GR-LBD, EC313 relative to Dexamethasone
# Chain of human PRA (P06401 165-933): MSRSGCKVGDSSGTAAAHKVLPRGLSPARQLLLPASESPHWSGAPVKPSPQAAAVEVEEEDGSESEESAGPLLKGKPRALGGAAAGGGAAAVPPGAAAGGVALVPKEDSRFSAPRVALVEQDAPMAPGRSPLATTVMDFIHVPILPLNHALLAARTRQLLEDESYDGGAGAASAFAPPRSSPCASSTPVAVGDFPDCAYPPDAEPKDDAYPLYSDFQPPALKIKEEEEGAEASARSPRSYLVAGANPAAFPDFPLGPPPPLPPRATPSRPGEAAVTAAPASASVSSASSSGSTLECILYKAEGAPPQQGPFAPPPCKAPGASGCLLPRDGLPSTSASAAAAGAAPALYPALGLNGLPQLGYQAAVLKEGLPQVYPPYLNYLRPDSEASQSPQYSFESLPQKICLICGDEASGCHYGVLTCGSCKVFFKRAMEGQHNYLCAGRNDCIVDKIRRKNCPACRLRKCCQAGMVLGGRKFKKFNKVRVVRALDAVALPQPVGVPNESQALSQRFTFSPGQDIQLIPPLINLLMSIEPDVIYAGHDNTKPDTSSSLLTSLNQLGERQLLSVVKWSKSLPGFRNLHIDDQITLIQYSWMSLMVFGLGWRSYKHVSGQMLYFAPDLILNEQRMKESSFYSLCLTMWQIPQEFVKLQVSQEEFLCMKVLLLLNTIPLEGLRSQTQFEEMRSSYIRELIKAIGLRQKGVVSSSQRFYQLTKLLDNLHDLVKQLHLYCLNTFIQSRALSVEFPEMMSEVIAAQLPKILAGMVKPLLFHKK
# T1 sequence (P03372 whole entry): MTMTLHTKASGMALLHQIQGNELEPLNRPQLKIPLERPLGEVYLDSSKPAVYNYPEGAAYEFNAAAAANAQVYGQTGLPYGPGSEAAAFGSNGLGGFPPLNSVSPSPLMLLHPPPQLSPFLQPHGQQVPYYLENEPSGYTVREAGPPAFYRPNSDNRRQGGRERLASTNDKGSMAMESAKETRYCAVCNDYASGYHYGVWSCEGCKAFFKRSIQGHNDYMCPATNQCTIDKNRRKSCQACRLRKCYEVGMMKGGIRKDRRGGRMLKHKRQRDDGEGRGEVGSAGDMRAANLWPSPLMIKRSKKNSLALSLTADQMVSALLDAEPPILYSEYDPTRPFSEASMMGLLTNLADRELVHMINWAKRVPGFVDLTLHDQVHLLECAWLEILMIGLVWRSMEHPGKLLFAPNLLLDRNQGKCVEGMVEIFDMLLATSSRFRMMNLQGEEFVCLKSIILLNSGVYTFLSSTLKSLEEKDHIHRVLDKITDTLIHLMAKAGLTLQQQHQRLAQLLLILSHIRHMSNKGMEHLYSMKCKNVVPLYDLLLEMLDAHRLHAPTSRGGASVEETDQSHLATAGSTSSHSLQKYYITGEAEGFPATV
# T3 sequence (Q92731 whole entry): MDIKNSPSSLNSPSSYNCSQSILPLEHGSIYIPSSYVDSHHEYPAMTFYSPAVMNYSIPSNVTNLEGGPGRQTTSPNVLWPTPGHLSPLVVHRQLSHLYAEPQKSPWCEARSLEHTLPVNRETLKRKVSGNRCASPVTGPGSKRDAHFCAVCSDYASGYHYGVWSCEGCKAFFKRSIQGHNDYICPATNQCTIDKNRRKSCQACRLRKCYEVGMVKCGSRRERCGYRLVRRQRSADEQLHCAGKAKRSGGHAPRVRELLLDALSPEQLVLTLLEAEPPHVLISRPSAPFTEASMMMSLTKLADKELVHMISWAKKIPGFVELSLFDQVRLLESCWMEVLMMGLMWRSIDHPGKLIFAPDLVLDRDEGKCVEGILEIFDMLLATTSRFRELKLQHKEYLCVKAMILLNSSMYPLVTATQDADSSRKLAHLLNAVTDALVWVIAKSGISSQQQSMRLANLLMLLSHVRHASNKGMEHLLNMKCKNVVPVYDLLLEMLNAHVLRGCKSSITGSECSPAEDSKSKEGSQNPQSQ
smiles,measurement,setting,value
C[C@]12C[C@H](c3ccc(-c4ccoc4)cc3)C3=C4CCC(=O)C=C4CC[C@H]3[C@@H]1CC[C@]21OCCC1=C(F)F [EC313],competitive displacement of [3H]-estradiol,[1],did not cause any competitive displacement
same,IC50,"human PRA; Promegestone 35 nM, read-out: IC50, antagonism of Promegestone-induced reporter gene expression",7.96 nM and 8 nM
same,EC50,"human PRA; weak agonistic activity, in the range of the maximum concentration tested",~1000 nM
same,anti-fibroid activity at very low dose,[2],demonstrated
same,androgenic / anti-androgenic effects (prostate plus seminal vesicle weights),[3],neither significant androgenic nor anti-androgenic effects
same,weights of human endometriotic tissue grafts,[4],significantly lower weights of the grafts
same,Comp. Coefficient,[5]; [8],2 and 1.7
same,RBA,[5]; [8],60%
same,IC50,[5]; hGR-LBD purified recombinant protein,19.1 ± 0.9 nM
same,expulsion of uterine contents / fetal expulsions (animals),pregnant guinea pigs,No fetal expulsions
same,competitive displacement of [3H]-estradiol,[6],did not cause any competitive displacement
same,competition coefficient,[7],3.4
